Results reported in US20220049238A1, “Synthetic Matrix Assembled and Rapidly Templated Spheroids, Organoids and 3D Cell Cultures” (Rutgers, The State University of New Jersey, priority 2020, published 2022).

Test system: IPSC-NSC
Test: Neuronal differentiation of hybrid spheroids with DAPT loaded on nanosheets (qPCR, immunostaining)
Format: cell-based
Method: Lastly, because Mn^2+ ions are MRI active, they could be used for MRI monitoring of degradation and drug release. A 7-day degradation study was performed, and it was shown that the Mn2+ ions generated correlated with the amount of the fluorescent model drug that was released, showing that the drug was released through the degradation of the scaffold nanosheets. After confirming the drug loading and degradation properties of the scaffold nanosheets and the hybrid spheroids, varying concentrations of DAPT were then loaded on the surface of the nanosheets at […] of from 0 to 50 μM. The spheres were cultured for 7 days and then the neuronal differentiation was analyzed using both qPCR and immunostaining.

[1] = day 7, loaded concentration of 5 and 10 μM

For `C[C@H](NC(=O)Cc1cc(F)cc(F)c1)C(=O)N[C@H](C(=O)OC(C)(C)C)c1ccccc1` [DAPT, N-[N-(3,5-difluorophenacetyl)-L-alanyl]-S-phenylglycine t-butyl ester], the cell death (50 μM condition) was “significant cell death”, the neurogenesis (50 μM condition) was “impaired neurogenesis” and the “Tuj1 positive cells by immunostaining” value [1] was “significant increase in Tuj1 positive cells”. The axon length [1] was “longer axons”, the “increase in mRNA expression of Tuj1” value [1] was “ca. 1.8 fold” and the “mature phenotype markers Map2 and NeuN (qPCR and immunostaining)” value [1] was “increase in mature phenotype markers”.
